{"source": "patent US20070059824A1", "about": "“Human umbilical cord blood-derived pluripotent fibroblast-like-macrophages” (priority 2005, published 2007)", "molecules": {"B1": {"name": "macrophage colony-stimulating factor (protein, UniProt P09603 33-554, looked up)", "Macrophage colony-stimulating …": "EEVSEYCSHMIGSGHLQSLQRLIDSQMETSCQITFEFVDQEQLKDPVCYLKKAFLLVQDIMEDTMRFRDNTPNAIAIVQLQELSLRLKSCFTKDYEEHDKACVRTFYETPLQLLEKVKNVFNETKNLLDKDWNIFSKNCNNSFAECSSQDVVTKPDCNCLYPKAIPSSDPASVSPHQPLAPSMAPVAGLTWEDSEGTEGSSLLPGEQPLHTVDPGSAKQRPPRSTCQSFEPPETPVVKDSTIGGSPQPRPSVGAFNPGMEDILDSAMGTNWVPEEASGEASEIPVPQGTELSPSRPGGGSMQTEPARPSNFLSASSPLPASAKGQQPADVTGTALPRVGPVRPTGQDWNHTPQKTDHPSALLRDPPEPGSPRISSLRPQGLSNPSTLSAQPQLSRSHSSGSVLPLGELEGRRSTRDRRSPAEPEGGPASEGAARPLPRFNSVPLTDTGHERQSEGSFSPQLQESVFHLLVPSVILVLLAVGGLLFYRWRRRSHQEPQRADSPLEQPEGSPLTQDDRQVELPV", "notes": "Recombinant human macrophage colony-stimulating factor from Sigma"}}, "key": {"[1]": {"tested_on": "insulin-expressing cells derived from TCB f-MΦ", "assay": "Insulin release from insulin-expressing cells derived from TCB f-MΦ (ELISA)", "assay_type": "cell-based, human", "conditions": "1 h", "protocol": "TPO-expanded CB f-MΦ (TCB f-MΦ) cultured in 24-well tissue culture plates (Costar, Corning, N.Y.) at 60-70% confluence was treated for 3 days with 1 μg/ml LPS+25 mM glucose in 1 ml 7% FBS-RPMI 1640 medium per well. TCB f-MΦ cultured in the same concentration of glucose served as control. Insulin release was performed as previously described with minor modifications [F. Schuit, A. De Vos, S. Farfari, K. Moens, D. Pipeleers, T. Brun, M. Prentki, Metabolic fate of glucose in purified islet cells. Glucose-regulated anaplerosis in beta cells, J. Biol. Chem. 272 (1997) 18572-18579; and N. Lumelsky, O. Blondel, P. Laeng, I. Velasco, R. Ravin, R. McKay, Differentiation of embryonic stem cells to insulin-secreting structures similar to pancreatic islets, Science 292 (2001) 1389-1394]. Cells were washed 5 times with PBS to remove the serum and then incubated with Kreb's buffer (120 mM NaCl, 5 mM KCl, 2.5 mM CaCl2, 1.1 mM MgCl2, 25 mM NaHCO3, 0.1% BSA) [N. Lumelsky, O. Blondel, P. Laeng, I. Velasco, R. Ravin, R. McKay, Differentiation of embryonic stem cells to insulin-secreting structures similar to pancreatic islets, Science 292 (2001) 1389-1394] for 30 min in the absence of glucose, at 37° C., 8% CO2 conditions. After removing the Kreb's buffer, cells were incubated with different concentration of glucose (0, 5, 10, and 25 mM) and/or other secretagogues (10 μM tolbudamide (Sigma), 500 μM diazoxide (Sigma), or 25 mM mannite (Sigma) in 300 μl Kreb's buffer/well for 1 h. Each treatment had duplicated wells. Insulin levels were monitored using an ultrasensitive human insulin enzyme-linked immunosorbent assay (ELISA) kit (Alpco Diagnostics, Windham, N.H.) following the manufacturer's protocols. Cell number/well from each treatment was finally quantified for calculating insulin level."}, "[2]": {"tested_on": "CB f-MΦ", "assay": "Immunostaining of TPO-expanded CB f-MΦ for phenotype markers", "assay_type": "cell-based, human", "protocol": "For f-MΦ expansion, the cells at 70% confluence were passaged at ratio 1:2 by pippetting and gently scraping with 100 μl tips (Rainin, Woburn, Mass.). Media were changed every 5-7 days with the fresh RPMI 1640 medium supplemented with 3.5% fetal bovine serum and 5 ng/ml thrombopoietin (TPO)."}, "[3]": {"tested_on": "CB f-MΦ", "assay": "Cell proliferation of CB f-MΦ with TPO (CyQUANT Cell Proliferation Assay)", "assay_type": "cell-based, human", "protocol": "Therefore, this stage f-MΦ, at ˜80% purity, was selected to examine the effect of TPO. Cells were washed with RPMI 1640 medium three times and then incubated with different concentration of TPO, such as 80, 40, 20, 10, 5, 2.5, 1.25, 0.625, and 0 ng/ml in the 8-well Lab-Tek chamber slides (Nunc, Naperville, Ill.) at 37° C., 8% CO2 conditions. After 4 days, cell proliferation was evaluated using CyQUANT® Cell Proliferation Assay Kit (Molecular Probes, Eugene, Oreg.). Cell fluorescence was measured using a Synergy HT Multi-Detection microplate reader (Bio-Tek Instruments Inc., Winooski, Vt.) equipped with filters for ˜480 nm excitation and ˜520 nm emission. The optical values were analyzed using the manufacturer's software KC4 v3.1."}, "[4]": {"tested_on": "TCB f-MΦ", "assay": "Differentiation of f-MΦ into insulin-expressing cells with LPS and high glucose (immunostaining)", "assay_type": "cell-based, human", "excerpt": "The final insulin concentration in the culture medium was 0.196 μU/ml."}, "[5]": {"tested_on": "TCB f-MΦ", "conditions": "50 ng/ml VEGF for 5-7 days", "method": "The cells were incubated for 20 min at room temperature with 2.5% diluted normal horse serum (Vector Laboratories, Burlingame, Calif.) to block nonspecific staining. Cells were then incubated with primary antibodies, the isotype-matched IgG1κ (BD PharMingen, San Diego, Calif.) (as control for mouse monoclonal antibodies), and normal rabbit serum (as control for rabbit polyclonal antibodies). After staining, the slides were mounted with Mounting Medium (Vector Laboratories, Burlingame, Calif.). Cells were viewed and photographed using a Zeiss LSM 510 META confocal microscope equipped with a 25× water immersion objective (Carl Zeiss Inc.), with Argon 488 nm laser for FITC fluorochrome filtered through LP505.\nThe TPO-expanded CB f-MΦ was treated with 50 ng/ml VEGF (Cell Sciences Inc., Canton, Mass.) in RPMI-1640 medium supplemented with 7% heat inactivated FBS as previously described [Y. Zhao, D. Glesne, E. Huberman, A human peripheral blood monocyte-derived subset acts as pluripotent stem cells, Proc. Natl. Acad. Sci. U.S.A. 100 (2003) 2426-2431]. After 5-7 days, the treated and untreated cells were prepared for characterizing with endothelial markers, including antibodies to Flt-1, Flk-1, vWF, CD31, and incorporating Dil-Ac-LDL as previously described [D. A. Ingram, L. E. Mead, H. Tanaka, V. Meade, A. Fenoglio, K. Mortell, K. Pollok, M. J. Ferkowicz, D. Gilley, M. C."}, "[6]": {"tested_on": "Human umbilical cord blood-derived monocytes", "assay": "Generation of f-MΦ from cord blood monocytes with M-CSF (morphology, cell counting)", "assay_type": "cell-based", "protocol": "Human umbilical cord blood samples (50-100 ml/unit) were obtained from healthy donors (Life-Source Blood Services, Glenview, Ill.). The f-MΦ culture was performed as previously described using human peripheral blood (14). Briefly, purified monocytes were seeded into the 8-Well Lab-Tek II Chamber Slide (Fisher Scientific) at 1×10^5 cells/ml, 0.5 ml/well in RPMI 1640 medium supplemented with 7% fetal bovine serum (Invitrogen, Carlsbad, Calif.) and 50 ng/ml M-CSF. The purity of f-MΦ normally reached 80-90% after incubation for 10-14 days at 37° C., 8% CO2 and was then used for experiments."}, "[7]": {"conditions": "5 ng/ml TPO, culture for 2 months"}}, "data": [{"molecule": "CC1=NS(=O)(=O)c2cc(Cl)ccc2N1", "note": "[diazoxide]", "values": [{"measurement": "insulin release", "setting": "[1]; 500 μM, in the presence of 25 mM glucose", "value": "inhibits insulin release"}]}, {"molecule": "OC[C@@H](O)[C@@H](O)[C@H](O)[C@H](O)CO", "note": "[mannite]", "values": [{"measurement": "insulin release", "setting": "[1]; 25 mM, osmolarity control", "value": "failed to stimulate insulin release"}]}, {"molecule": "CCCCNC(=O)NS(=O)(=O)c1ccc(C)cc1", "note": "[tolbutamide]", "values": [{"measurement": "insulin release", "setting": "[1]; 10 μM, in the presence of 5 mM glucose", "value": "stimulates insulin release"}]}, {"molecule": "Thrombopoietin [TPO]", "values": [{"measurement": "CD34 expression, share of cells", "setting": "[2]; [7]", "value": "~30", "unit": "%"}, {"measurement": "expression of CD45, CD14, CD163 and CD117", "setting": "[2]; [7]", "value": "at the same level as parental CB f-MΦ"}, {"measurement": "expression of platelet and megakaryocyte markers CD41a, CD41b, CD42b", "setting": "[2]; 4th and 5th passaged cells after TPO expansion", "value": "not induced"}, {"measurement": "cell number relative to TPO-untreated CB f-MΦ", "setting": "[3]; TPO 2.5-5 ng/ml", "value": "about 2 times"}, {"measurement": "cell number relative to control monocytes", "setting": "[3]; TPO 2.5-5 ng/ml", "value": "~10", "unit": "times"}, {"measurement": "proliferation of CB f-MΦ at higher dosage", "setting": "[3]; TPO >40 ng/ml", "value": "inhibited the proliferation"}]}, {"molecule": "lipopolysaccharide [LPS]", "values": [{"measurement": "cells expressing glucagon-like peptide 1 receptor", "setting": "[4]; CB f-MΦ, 50 ng/ml LPS in the presence of 25 mM glucose for 2 days", "value": "around 70%"}, {"measurement": "cells strongly positive for insulin and C-peptide", "setting": "[4]; LPS 1 μg/ml in the presence of 25 mM glucose", "value": "85-90%"}]}, {"molecule": "vascular endothelial cell growth factor [VEGF]", "values": [{"measurement": "expression of endothelial cell-associated markers", "setting": "[5]", "value": "significantly expressed Flt-1, Flk-1, vWF, and CD31"}]}, {"molecule": "B1", "values": [{"measurement": "cells elongated", "setting": "[6]; 50 ng/ml M-CSF for 10-14 days", "value": "80-90%"}, {"measurement": "cell number", "setting": "[6]; 50 ng/ml M-CSF, FIG. 1", "value": "significantly increased the cell number"}]}]}
